Values after ≈ are worked out from the molar mass of the structure shown.
Assays:
Format in all cases: functional, cell-based
[1] = Cytotoxicity against mouse P388 cells
KB [2] = assay: Cytotoxicity against human Vincristine-resistant KB cells; settings: pooled result: one value given for 6 cell lines, strains, targets or settings
HL-60 = assay: Cytotoxicity against human HL-60 cells; settings: Homo sapiens, HL-60; read-out: IC50
[3] = test system: Panel NCI-60 (60 carcinoma cell lines); assay: Cytotoxicity against human Panel NCI-60 (60 carcinoma cell lines)
L1210 = assay: Cytotoxicity against mouse L1210 cells
KB [4] = assay: Cytotoxicity against human KB cells; settings: Homo sapiens, KB; read-out: IC50
HepG2 = assay: Cytotoxicity against human HepG2 cells after 48 hrs incubation by SRB assay; settings: HepG2, 48 h
Hep 3B2 = assay: Cytotoxicity against human Hep3B cells after 48 hrs incubation by SRB assay
MCF7 [5] = assay: Cytotoxicity against human MCF7 cells incubated for 48 hrs by neutral red dye based assay; settings: MCF7, 48 h
HCT-116 [6] = assay: Cytotoxicity against human HCT-116 cells incubated for 48 hrs by neutral red dye based assay; settings: HCT-116, 48 h
A549 [7] = assay: Cytotoxicity against human A549 cells incubated for 48 hrs by neutral red dye based assay; settings: A549, 48 h
CNE-2 = assay: Cytotoxicity against human CNE-2 cells incubated for 48 hrs by MTT assay; settings: CNE-2, 48 h
A2780 = assay: Antiproliferative activity against human A2780 cells
SK-OV-3 = assay: Antiproliferative activity against human SK-OV-3 cells
L5178Y = assay: Cytotoxicity against mouse L5178Y cells incubated 72 hrs; settings: for IC50: 72 h; for EC50: time 72 hrs, read-out: ED50 (the source's name)
MCF7 [8] = assay: Cytotoxicity against human MCF7 cells
HCT-116 [9] = assay: Cytotoxicity against human HCT-116 cells
A549 [10] = assay: Cytotoxicity against human A549 cells
NCI-H1299 = assay: Cytotoxicity against human NCI-H1299 cells
HeLa = assay: Cytotoxicity against human HeLa cells

COc1ccc2c3cc[n+]([O-])c4ccc(=O)n(c2c1)c34
IC50 [1]: 3.8 µg/mL (≈ 14.3 µM)
IC50 (KB [2]): 3.8 µg/mL (≈ 14.3 µM)

COc1ccc2c3ccnc4ccc(=O)n(c2c1)c43
IC50 [1]: 1.4 µg/mL (≈ 5.59 µM)
IC50 (KB [2]): 1.4 µg/mL (≈ 5.59 µM)

C=Cc1nccc2c1[nH]c1c(O)cccc12
IC50 [1]: 0.1 µg/mL (≈ 0.476 µM)

COc1ccc2c3c([nH]c2c1)[C@]1(NCC3)C(C)=C(C)c2nc3ccccc3c(=O)n21
IC50 (HL-60): 9.4 µM

Fc1ccc(-c2nc(-c3nc4ccc(Cl)cc4[nH]3)cc3c2[nH]c2ccccc23)cc1
IC50 [3]: 0.3 µM

Oc1ccc2[nH]c3c(C4=C[C@@]5(O)CC/C=C\CCCCN6CC[C@@H]4[C@]4(C[C@@H]7/C=C\CCCCN7[C@H]45)C6)nccc3c2c1 [MANZAMINE Y]
IC50 (L1210): 1.5 µg/mL (≈ 2.66 µM)
IC50 (KB [4]): 2.5 µg/mL (≈ 4.43 µM)

COc1cnc(C(=O)[C@H](CC(=O)c2nccc3c2[nH]c2ccccc23)OC)c2[nH]c3ccccc3c12
IC50 (HepG2): 43.9 µM
IC50 (Hep 3B2): 18.6 µM

O=C1NCCc2c1[nH]c1ccccc21
IC50 (MCF7 [5]): 8.27 µg/mL (≈ 44.4 µM)
IC50 (HCT-116 [6]): 7.45 µg/mL (≈ 40 µM)
IC50 (A549 [7]): 10.1 µg/mL (≈ 54.3 µM)

COc1c(O)c(=O)n2c3ccccc3c3ccnc1c32
IC50 (CNE-2): 7.96 µg/mL (≈ 29.9 µM)

C[n+]1ccc2c3ccccc3n3c2c1CC(=O)C3=O
IC50 (CNE-2): 23.7 µg/mL

O[C@]12C=C(c3nccc4c3[nH]c3ccccc34)[C@@H]3CCN(CCCC/C=C\CC1)C[C@@]31C[C@@H]3/C=C\CCCCN3[C@H]12 [MANZAMINE A]
IC50 [1]: 0.07 µg/mL (≈ 0.128 µM)

C=Cc1ncc(OC)c2c1[nH]c1c(OC)cccc12
IC50 (A2780): 2.02 µg/mL
IC50 (SK-OV-3): 11.9 µg/mL

O=c1ccc2nccc3c4ccc(O)cc4n1c23
IC50 [1]: 1.5 µg/mL (≈ 6.35 µM)
IC50 (KB [2]): 1.5 µg/mL (≈ 6.35 µM)

COc1ccc2c3c([nH]c2c1)-c1c(C(=O)c2ncc4ccccc4n2)ccn1CC3
IC50 (HL-60): 13.6 µM

CN[C@H](CSC)c1nccc2c1[nH]c1ccc(O)c(Br)c12 [EUDISTOMIDIN C]
IC50 (L5178Y): 0.42 µg/mL (≈ 1.15 µM)

C=Cc1ncc(OC)c2c1[nH]c1c(O)cccc12
IC50 (A2780): 8.47 µM
IC50 (SK-OV-3): 16.3 µM

[O-][n+]1ccc2c([nH]c3ccccc32)c1C1=C[C@@]2(O)CC/C=C\CCCCN3CC[C@@H]1[C@]1(CC/C=C\CCCCN[C@H]12)C3
EC50 (L5178Y): 3.2 µg/mL (≈ 5.65 µM)

CNc1nccc(-c2nccc3c2[nH]c2ccccc23)n1
IC50 (MCF7 [8]): 4.33 µM
IC50 (HCT-116 [9]): 2.9 µM

Nc1nccc(-c2nccc3c2[nH]c2ccccc23)n1 [ANNOMONTINE]
IC50 (MCF7 [5]): 1.21 µg/mL (≈ 4.63 µM)
IC50 (HCT-116 [6]): 0.42 µg/mL (≈ 1.61 µM)
IC50 (A549 [7]): 1.09 µg/mL (≈ 4.17 µM)

COc1cnc(C(=O)[C@H](Cc2nccc3c2[nH]c2ccccc23)OC)c2[nH]c3ccccc3c12
IC50 (HepG2): 27.5 µM
IC50 (Hep 3B2): 46.2 µM

CC(=O)c1nc(C(=O)NCCc2ccccc2)cc2c1[nH]c1ccccc12
IC50 (A549 [10]): 37.4 µM
IC50 (HCT-116 [9]): 37.4 µM
IC50 (NCI-H1299): 37.4 µM

COc1ccc(-c2nc(-c3nc4ccc(OC)cc4[nH]3)cc3c2[nH]c2ccccc23)cc1
IC50 [3]: 0.3 µM

[O-][N+]1=C(C2=C[C@@]3(O)CC/C=C\CCCCN4CC[C@@H]2[C@]2(CC5/C=C\CCCCN5[C@H]23)C4)c2[nH]c3ccccc3c2CC1 (stereo partly drawn)
EC50 (L5178Y): 1.6 µg/mL (≈ 2.82 µM)

O=C1CCCCN2[C@@H](C1)C[C@]13CN4CCCC/C=C\CC[C@](O)(C=C(c5nccc6c5[nH]c5c(O)cccc56)[C@@H]1CC4)[C@H]23
IC50 [1]: 5 µg/mL (≈ 8.61 µM)

COc1cccc2c1C(=O)c1c(O)c3c(c(O)c1C2=O)C[C@@](O)(C(=O)CO)C[C@@H]3O[C@H]1C[C@H](N)[C@H](O)[C@H](C)O1 [DOXORUBICIN]
IC50 (HCT-116 [9]): 0.39 µM

COc1ccc(-c2nc(-c3nc4ccc(F)cc4[nH]3)cc3c2[nH]c2ccccc23)cc1
IC50 [3]: 0.3 µM

CNC(=O)CCCc1nccc2c1[nH]c1ccccc12
IC50 (MCF7 [5]): 3.5 µg/mL (≈ 13.1 µM)
IC50 (HCT-116 [6]): 0.67 µg/mL (≈ 2.51 µM)
IC50 (A549 [7]): 2.15 µg/mL (≈ 8.04 µM)

C=Cc1ncc(OC)c2c1[nH]c1ccccc12
IC50 (A2780): 4.77 µg/mL
IC50 (SK-OV-3): 15.7 µg/mL

COc1c(OC)c2nccc3c4ccccc4n(c1=O)c23 [4,5-DIMETHOXYCANTHIN-6-ONE]
IC50 (CNE-2): 9.86 µg/mL (≈ 35.2 µM)

COc1c(OC)c2nccc3c4cc(O)ccc4n(c1=O)c23
IC50 (CNE-2): 11.6 µg/mL (≈ 39.2 µM)

CC(C=O)CNc1nccc(-c2nccc3c2[nH]c2ccccc23)n1 (stereo not drawn)
IC50 (MCF7 [8]): 6.05 µM
IC50 (HCT-116 [9]): 3.35 µM

COc1cnc(C(=O)[C@@H](Cc2nccc3c2[nH]c2ccccc23)OC)c2[nH]c3ccccc3c12
IC50 (HepG2): 33.9 µM
IC50 (Hep 3B2): > 50 µM

O[C@]12C=C(c3nccc4c3[nH]c3ccccc34)[C@@H]3CCN(CCCC/C=C\CC1)C[C@@]31CC/C=C\CCCCN[C@H]12 [MANZAMINE J]
IC50 (L1210): 2.6 µg/mL (≈ 4.72 µM)

Nc1nccc(-c2nccc3c2[nH]c2c([C@@H]4c5ccccc5N=C5[C@@H](O)CCN54)c(O)ccc23)n1
IC50 (HL-60): 39 µM
IC50 (A549 [10]): 55.7 µM

O=c1ccc2c3c(cc[n+]2[O-])c2ccc(O)cc2n13
IC50 [1]: 3.5 µg/mL (≈ 13.9 µM)
IC50 (KB [2]): 3.5 µg/mL (≈ 13.9 µM)

[O-][n+]1ccc2c([nH]c3ccccc32)c1C1=C[C@@]2(O)CC/C=C\CCCCN3CC[C@@H]1[C@]1(CC4/C=C\CCCCN4[C@H]12)C3 (stereo partly drawn)
EC50 (L5178Y): 1.6 µg/mL (≈ 2.83 µM)

CC(=O)c1nc(C(=O)NCCc2ccc(O)cc2)cc2c1[nH]c1ccccc12
IC50 (A549 [10]): 37.9 µM
IC50 (HCT-116 [9]): 37.9 µM
IC50 (NCI-H1299): 37.9 µM

C=Cc1ncc(OC)c2c3ccccc3n(OC)c12
IC50 (A2780): 14.8 µM
IC50 (SK-OV-3): 66.6 µM

N[C@@H]1CSCON2CCc3c([nH]c4cc(Br)ccc34)[C@H]12
IC50 [1]: 0.01 µg/mL (≈ 0.0282 µM)

COc1cc(-c2nc(C(=O)N[C@@H](Cc3c[nH]c4ccccc34)C(=O)N[C@@H](Cc3c[nH]c4ccccc34)C(=O)N[C@@H](CCSC)C(=O)OCc3ccccc3)cc3c2[nH]c2ccccc23)ccc1O
IC50 (HL-60): 16 µM

Nc1nccc(C2=NCCc3c2[nH]c2ccccc32)n1
IC50 (MCF7 [5]): 2.81 µg/mL (≈ 10.7 µM)
IC50 (HCT-116 [6]): 0.59 µg/mL (≈ 2.24 µM)
IC50 (A549 [7]): 1.92 µg/mL (≈ 7.29 µM)

CC(C)CC(N)c1nccc2c1[nH]c1cc(Br)ccc12 (stereo not drawn) [EUDISTALBIN A]
IC50 (KB [4]): 3.2 µg/mL (≈ 9.63 µM)

COc1ccc(CCNC(=O)c2cc3c([nH]c4ccccc43)c(C(C)=O)n2)cc1 [MARINACARBOLINE A]
IC50 (A549 [10]): 24.4 µM
IC50 (HCT-116 [9]): 24.4 µM
IC50 (NCI-H1299): 24.4 µM

C1=C\CC[C@]23CN4CCCC/C=C\CC[C@@]5(O[C@H]5[C@@H](c5nccc6c5[nH]c5ccccc56)[C@@H]2CC4)[C@@H]3NCCCC/1 [MANZAMINE B]
IC50 [1]: 6 µg/mL (≈ 10.9 µM)

COc1ccccc1-c1c(-c2ccccc2)ncc2[nH]c3ccccc3c12
IC50 (A549 [10]): 8.2 µM
IC50 (HeLa): 20.8 µM

COc1ccc2nc(-c3cc4c([nH]c5ccccc54)c(-c4ccc(F)c(F)c4)n3)[nH]c2c1
IC50 [3]: 0.3 µM

COc1nccc2c1[nH]c1ccccc12
IC50 (A2780): 9.72 µg/mL
IC50 (SK-OV-3): 22.3 µg/mL

C1=C\CCCCN(CCc2nccc3c2[nH]c2ccccc23)CCCC/1 [MANZAMINE C]
IC50 [1]: 3 µg/mL (≈ 8.63 µM)

O[C@H]1[C@H]2[C@@H]3c4[nH]c5ccccc5c4CCN3CN3CCCC/C=C\CC[C@@]45CN(CCCC/C=C\CC[C@@]1(O)[C@H]34)CC[C@@H]25
IC50 (L1210): 4.4 µg/mL (≈ 7.52 µM)

Cn1c2cnccc2c2c(Br)c(O)ccc21
IC50 (L1210): 2.4 µg/mL (≈ 8.66 µM)
IC50 (L5178Y): 1.8 µg/mL (≈ 6.5 µM)

Oc1ccc2[nH]c3c(C4=C[C@@]5(O)CC/C=C\CCCCN6CC[C@@H]4[C@@]4(C6)CC67CCC(CCCN6[C@H]45)O7)nccc3c2c1
IC50 (KB [4]): 7.9 µg/mL (≈ 13.6 µM)

COc1ccc2c(c1)NC1C2CCN2C(=O)[C@]34C5Nc6cc(OC)ccc6C5CCN3[C@]12C4(C)C (stereo partly drawn)
IC50 (HL-60): 5.8 µM

O=c1ccc2nccc3c4cccc(O)c4n1c23
IC50 (CNE-2): 13.4 µg/mL (≈ 56.9 µM)

O[C@]12C=C(c3nccc4c3[nH]c3ccccc34)[C@@H]3CCN(CCCC/C=C\CC1)C[C@@]31CC34CCC(CCCN3[C@H]12)O4
EC50 (L5178Y): 1.8 µg/mL (≈ 3.19 µM)

CC(=O)c1nc(C(=O)NCCc2c[nH]c3ccccc23)cc2c1[nH]c1ccccc12 [MARINACARBOLINE D]
IC50 (A549 [10]): 15 µM
IC50 (HCT-116 [9]): 15 µM
IC50 (NCI-H1299): 15 µM

Oc1ccc2[nH]c3c(C4=C[C@@]5(O)CC/C=C\CCCCN6CC[C@@H]4[C@]4(CC7/C=C\CCCCN7[C@H]45)C6)nccc3c2c1 (stereo partly drawn)
IC50 (KB [4]): 7.3 µg/mL (≈ 12.9 µM)

O[C@]12C=C(C3NCCc4c3[nH]c3ccccc43)[C@@H]3CCN(CCCC/C=C\CC1)C[C@@]31CC/C=C\CCCCN[C@H]12 (stereo partly drawn)
IC50 (L1210): 1.3 µg/mL (≈ 2.34 µM)

COc1cnc(C(=O)[C@@H](CC(=O)c2nccc3c2[nH]c2ccccc23)OC)c2[nH]c3ccccc3c12
IC50 (HepG2): > 50 µM
IC50 (Hep 3B2): 31.4 µM
